Tested on: Stress protein genes
Test: DNA chip mRNA expression in yeast, stress protein genes (Table 6)
Type: cell-based, Saccharomyces cerevisiae S288C
Outline: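 Values are treated/untreated fluorescence ratios from a whole-genome yeast DNA chip hybridized over 12 hours at 65° C with Cy3- or Cy5-labelled cDNA from poly(A) mRNA. Log-phase S288C yeast in YPD at 25° C had received a single toxic chemical for two hours, dosed to slow growth without killing.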

Cl[C@H]1[C@H](Cl)[C@@H](Cl)[C@@H](Cl)[C@H](Cl)[C@H]1Cl [(7), γ-hexachlorocyclohexane]
The level of expressed mRNA in the presence of chemical substance/The level of expressed mRNA in the absence of chemical substance (yeast gene YAL005C): 1.2 | The level of expressed mRNA in the presence of chemical substance/The level of expressed mRNA in the absence of chemical substance (yeast gene YAL015C): 1.2 | The level of expressed mRNA in the presence of chemical substance/The level of expressed mRNA in the absence of chemical substance (yeast gene YBL075C): 1.3 | The level of expressed mRNA in the presence of chemical substance/The level of expressed mRNA in the absence of chemical substance (yeast gene YBL093C): 1.3 | The level of expressed mRNA in the presence of chemical substance/The level of expressed mRNA in the absence of chemical substance (yeast gene YBR044C): 1.5 | The level of expressed mRNA in the presence of chemical substance/The level of expressed mRNA in the absence of chemical substance (yeast gene YBR054W): 0.6 | The level of expressed mRNA in the presence of chemical substance/The level of expressed mRNA in the absence of chemical substance (yeast gene YBR067C): 1.1 | The level of expressed mRNA in the presence of chemical substance/The level of expressed mRNA in the absence of chemical substance (yeast gene YBR072W): 6.6 | The level of expressed mRNA in the presence of chemical substance/The level of expressed mRNA in the absence of chemical substance (yeast gene YBR126C): 2.3 | The level of expressed mRNA in the presence of chemical substance/The level of expressed mRNA in the absence of chemical substance (yeast gene YBR169C): 2.5 | The level of expressed mRNA in the presence of chemical substance/The level of expressed mRNA in the absence of chemical substance (yeast gene YCL035C): 2.7 | The level of expressed mRNA in the presence of chemical substance/The level of expressed mRNA in the absence of chemical substance (yeast gene YCR021C): 0.9 | The level of expressed mRNA in the presence of chemical substance/The level of expressed mRNA in the absence of chemical substance (yeast gene YCR060W): 2.4 | The level of expressed mRNA in the presence of chemical substance/The level of expressed mRNA in the absence of chemical substance (yeast gene YCR083W): 1.8 | The level of expressed mRNA in the presence of chemical substance/The level of expressed mRNA in the absence of chemical substance (yeast gene YDL022W): 1.5 | The level of expressed mRNA in the presence of chemical substance/The level of expressed mRNA in the absence of chemical substance (yeast gene YDL025C): 1.0 | The level of expressed mRNA in the presence of chemical substance/The level of expressed mRNA in the absence of chemical substance (yeast gene YDR033W): 0.8 | The level of expressed mRNA in the presence of chemical substance/The level of expressed mRNA in the absence of chemical substance (yeast gene YDR077W): 0.7 | The level of expressed mRNA in the presence of chemical substance/The level of expressed mRNA in the absence of chemical substance (yeast gene YDR098C): 1.5 | The level of expressed mRNA in the presence of chemical substance/The level of expressed mRNA in the absence of chemical substance (yeast gene YDR155C): 1.2 | The level of expressed mRNA in the presence of chemical substance/The level of expressed mRNA in the absence of chemical substance (yeast gene YDR258C): 3.9 | The level of expressed mRNA in the presence of chemical substance/The level of expressed mRNA in the absence of chemical substance (yeast gene YDR293C): 0.9 | The level of expressed mRNA in the presence of chemical substance/The level of expressed mRNA in the absence of chemical substance (yeast gene YDR436W): 1.2 | The level of expressed mRNA in the presence of chemical substance/The level of expressed mRNA in the absence of chemical substance (yeast gene YDR513W): 1.6 | The level of expressed mRNA in the presence of chemical substance/The level of expressed mRNA in the absence of chemical substance (yeast gene YDR519W): 1.9 | The level of expressed mRNA in the presence of chemical substance/The level of expressed mRNA in the absence of chemical substance (yeast gene YEL030W): 0.9 | The level of expressed mRNA in the presence of chemical substance/The level of expressed mRNA in the absence of chemical substance (yeast gene YEL039C): 0.6 | The level of expressed mRNA in the presence of chemical substance/The level of expressed mRNA in the absence of chemical substance (yeast gene YER042W): 1.1 | The level of expressed mRNA in the presence of chemical substance/The level of expressed mRNA in the absence of chemical substance (yeast gene YER057C): 1.4 | The level of expressed mRNA in the presence of chemical substance/The level of expressed mRNA in the absence of chemical substance (yeast gene YER103W): 1.0 | The level of expressed mRNA in the presence of chemical substance/The level of expressed mRNA in the absence of chemical substance (yeast gene YER125W): 0.8 | The level of expressed mRNA in the presence of chemical substance/The level of expressed mRNA in the absence of chemical substance (yeast gene YFL014W): 5.5 | The level of expressed mRNA in the presence of chemical substance/The level of expressed mRNA in the absence of chemical substance (yeast gene YFL016C): 1.4 | The level of expressed mRNA in the presence of chemical substance/The level of expressed mRNA in the absence of chemical substance (yeast gene YFL020C): 1.4 | The level of expressed mRNA in the presence of chemical substance/The level of expressed mRNA in the absence of chemical substance (yeast gene YFR052W): 2.2 | The level of expressed mRNA in the presence of chemical substance/The level of expressed mRNA in the absence of chemical substance (yeast gene YGL073W): 1.3 | The level of expressed mRNA in the presence of chemical substance/The level of expressed mRNA in the absence of chemical substance (yeast gene YGL115W): 1.4 | The level of expressed mRNA in the presence of chemical substance/The level of expressed mRNA in the absence of chemical substance (yeast gene YGL181W): 1.3 | The level of expressed mRNA in the presence of chemical substance/The level of expressed mRNA in the absence of chemical substance (yeast gene YGR088W): 0.8 | The level of expressed mRNA in the presence of chemical substance/The level of expressed mRNA in the absence of chemical substance (yeast gene YHL028W): 2.1 | The level of expressed mRNA in the presence of chemical substance/The level of expressed mRNA in the absence of chemical substance (yeast gene YHL046C): 1.3 | The level of expressed mRNA in the presence of chemical substance/The level of expressed mRNA in the absence of chemical substance (yeast gene YHR030C): 1.8 | The level of expressed mRNA in the presence of chemical substance/The level of expressed mRNA in the absence of chemical substance (yeast gene YHR057C): 1.3 | The level of expressed mRNA in the presence of chemical substance/The level of expressed mRNA in the absence of chemical substance (yeast gene YHR104W): 1.5 | The level of expressed mRNA in the presence of chemical substance/The level of expressed mRNA in the absence of chemical substance (yeast gene YIL011W): 0.6 | The level of expressed mRNA in the presence of chemical substance/The level of expressed mRNA in the absence of chemical substance (yeast gene YIL033C): 1.1 | The level of expressed mRNA in the presence of chemical substance/The level of expressed mRNA in the absence of chemical substance (yeast gene YIR037W): 1.8 | The level of expressed mRNA in the presence of chemical substance/The level of expressed mRNA in the absence of chemical substance (yeast gene YIR038C): 2.0 | The level of expressed mRNA in the presence of chemical substance/The level of expressed mRNA in the absence of chemical substance (yeast gene YJL128C): 1.8 | The level of expressed mRNA in the presence of chemical substance/The level of expressed mRNA in the absence of chemical substance (yeast gene YJL158C): 0.4 | The level of expressed mRNA in the presence of chemical substance/The level of expressed mRNA in the absence of chemical substance (yeast gene YJL159W): 0.9 | The level of expressed mRNA in the presence of chemical substance/The level of expressed mRNA in the absence of chemical substance (yeast gene YJL165C): 0.8 | The level of expressed mRNA in the presence of chemical substance/The level of expressed mRNA in the absence of chemical substance (yeast gene YJR045C): 1.0 | The level of expressed mRNA in the presence of chemical substance/The level of expressed mRNA in the absence of chemical substance (yeast gene YJR090C): 0.8 | The level of expressed mRNA in the presence of chemical substance/The level of expressed mRNA in the absence of chemical substance (yeast gene YKL161C): 2.0 | The level of expressed mRNA in the presence of chemical substance/The level of expressed mRNA in the absence of chemical substance (yeast gene YKL163W): 0.9 | The level of expressed mRNA in the presence of chemical substance/The level of expressed mRNA in the absence of chemical substance (yeast gene YKL164C): 0.8 | The level of expressed mRNA in the presence of chemical substance/The level of expressed mRNA in the absence of chemical substance (yeast gene YKL210W): 1.0 | The level of expressed mRNA in the presence of chemical substance/The level of expressed mRNA in the absence of chemical substance (yeast gene YKR053C): 1.7 | The level of expressed mRNA in the presence of chemical substance/The level of expressed mRNA in the absence of chemical substance (yeast gene YLL024C): 1.1 | The level of expressed mRNA in the presence of chemical substance/The level of expressed mRNA in the absence of chemical substance (yeast gene YLL026W): 2.9 | The level of expressed mRNA in the presence of chemical substance/The level of expressed mRNA in the absence of chemical substance (yeast gene YLL039C): 1.1 | The level of expressed mRNA in the presence of chemical substance/The level of expressed mRNA in the absence of chemical substance (yeast gene YLL060C): 2.0 | The level of expressed mRNA in the presence of chemical substance/The level of expressed mRNA in the absence of chemical substance (yeast gene YLR006C): 1.1 | The level of expressed mRNA in the presence of chemical substance/The level of expressed mRNA in the absence of chemical substance (yeast gene YLR109W): 2.6 | The level of expressed mRNA in the presence of chemical substance/The level of expressed mRNA in the absence of chemical substance (yeast gene YLR259C): 1.8 | The level of expressed mRNA in the presence of chemical substance/The level of expressed mRNA in the absence of chemical substance (yeast gene YML007W): 1.1 | The level of expressed mRNA in the presence of chemical substance/The level of expressed mRNA in the absence of chemical substance (yeast gene YML070W): 3.1 | The level of expressed mRNA in the presence of chemical substance/The level of expressed mRNA in the absence of chemical substance (yeast gene YMR021C): 2.5 | The level of expressed mRNA in the presence of chemical substance/The level of expressed mRNA in the absence of chemical substance (yeast gene YMR173W): 2.4 | The level of expressed mRNA in the presence of chemical substance/The level of expressed mRNA in the absence of chemical substance (yeast gene YMR186W): 1.2 | The level of expressed mRNA in the presence of chemical substance/The level of expressed mRNA in the absence of chemical substance (yeast gene YNL064C): 0.6 | The level of expressed mRNA in the presence of chemical substance/The level of expressed mRNA in the absence of chemical substance (yeast gene YNL160W): 2.4 | The level of expressed mRNA in the presence of chemical substance/The level of expressed mRNA in the absence of chemical substance (yeast gene YNL241C): 3.2 | The level of expressed mRNA in the presence of chemical substance/The level of expressed mRNA in the absence of chemical substance (yeast gene YNR076W): 1.2 | The level of expressed mRNA in the presence of chemical substance/The level of expressed mRNA in the absence of chemical substance (yeast gene YOL064C): 1.2 | The level of expressed mRNA in the presence of chemical substance/The level of expressed mRNA in the absence of chemical substance (yeast gene YOL161C): 0.9 | The level of expressed mRNA in the presence of chemical substance/The level of expressed mRNA in the absence of chemical substance (yeast gene YOR008C): 0.8 | The level of expressed mRNA in the presence of chemical substance/The level of expressed mRNA in the absence of chemical substance (yeast gene YOR009W): 0.6 | The level of expressed mRNA in the presence of chemical substance/The level of expressed mRNA in the absence of chemical substance (yeast gene YOR010C): 0.4 | The level of expressed mRNA in the presence of chemical substance/The level of expressed mRNA in the absence of chemical substance (yeast gene YOR027W): 1.3 | The level of expressed mRNA in the presence of chemical substance/The level of expressed mRNA in the absence of chemical substance (yeast gene YOR208W): 1.1 | The level of expressed mRNA in the presence of chemical substance/The level of expressed mRNA in the absence of chemical substance (yeast gene YPL059W): 0.7 | The level of expressed mRNA in the presence of chemical substance/The level of expressed mRNA in the absence of chemical substance (yeast gene YPL106C): 1.1 | The level of expressed mRNA in the presence of chemical substance/The level of expressed mRNA in the absence of chemical substance (yeast gene YPL140C): 1.4 | The level of expressed mRNA in the presence of chemical substance/The level of expressed mRNA in the absence of chemical substance (yeast gene YPL194W): 1.5 | The level of expressed mRNA in the presence of chemical substance/The level of expressed mRNA in the absence of chemical substance (yeast gene YPL223C): 1.1 | The level of expressed mRNA in the presence of chemical substance/The level of expressed mRNA in the absence of chemical substance (yeast gene YPL240C): 1.4 | The level of expressed mRNA in the presence of chemical substance/The level of expressed mRNA in the absence of chemical substance (yeast gene YPR005C): 1.2 | The level of expressed mRNA in the presence of chemical substance/The level of expressed mRNA in the absence of chemical substance (yeast gene YPR026W): 1.3

Reference: US8192962B2, “Processes for detecting toxic substances” (Daikin Industries, Ltd., priority 2001, dated 2012)
